Results taken from patent US9962391B2, “Composition and method for compounded therapy” (CMPD LICENSING, LLC, priority 2011, dated 2018).

What was measured:
[1] = 198 Day Potency Test of transdermal cream including meloxicam, lamotrigine, lidocaine, and prilocaine; format: physicochemical; settings: 198 days, stored at approximately 20° C. to 25° C., in cream, HPLC; for % of EXP.: relative to expected amount
Protocol: (§1) The sample was stored in approximately 20° C. to 25° C. (68° F. to 77° F.) conditions, and contained one large white tube with cream in a clear bag.

[2] = 100 Day Potency Test of transdermal cream including meloxicam, topiramate, lidocaine, and prilocaine; format: physicochemical; settings: 100 days, stored at approximately 20° C. to 25° C., in cream, HPLC; for % of EXP.: relative to expected amount
Protocol: as §1

[3] = Forced degradation study (heat and acid) on Meloxicam/Gabapentin/Lidocaine/Prilocaine Cream 0.09%/2.5%/2.15%/2.15%; settings: untreated, heat treated and acid treated samples, undiluted extracts
Protocol: (§2) The column temperature was 50° C.
as §2

Row | Structure (SMILES) | Results (amount of analyte found) [1] [%] | % of EXP. [1] [%] | Results (amount of analyte found) [2] [%] | % of EXP. [2] [%] | Degradation seen in Total Ion Chromatograms (TIC) [3]
1 | CCCNC(C)C(=O)Nc1ccccc1C (stereo not shown) [Prilocaine] | 2.118 | 105.9 | 1.899 | 95.0 | –
2 | CCN(CC)CC(=O)Nc1c(C)cccc1C [Lidocaine] | 1.927 | 96.4 | 1.700 | 85.0 | –
3 | CC1(C)O[C@@H]2[C@@H](CO[C@@]3(COS(N)(=O)=O)OC(C)(C)O[C@@H]23)O1 [Topiramate] | – | – | 2.368 | 94.7 | –
4 | NCC1(CC(=O)O)CCCCC1 [Gabapentin] | – | – | – | – | major degradant at 1.18 minute was caused both by acid and by heat
5 | Nc1nnc(-c2cccc(Cl)c2Cl)c(N)n1 [Lamotrigine] | 2.463 | 98.5 | – | – | –
